Data as given in US8530650B2, “2, 5-diamino-substituted pyrido [4, 3-D] pyrimidines as autotaxin inhibitors against cancer” (MERCK PATENT GmbH, priority 2008, dated 2013).

What follows are compounds tested against T1, recombinant autotaxin (Homo sapiens, UniProt Q13822) (assay: Autotaxin assay (Amplex Red, LPC substrate)). Conditions: 75 μM LPC, Amplex Red fluorescence, ten 1:3 dilutions starting at 30 μM.
T1 construct: made in house; host or cells: Hi5 insect cells (baculovirus)
Assay type: biochemical
Description: Autotaxin activity is measured indirectly by means of Amplex Red Reagent. In this course, Amplex Red is measured as fluorogenic indicator for generated H2O2. Autotaxin converts substrate lysophosphatidylcholine (LPC) to phosphocholine and lysophosphatidylic acid (LPA). After the conversion phosphocholine is reacted with alkaline phosphatase to obtain inorganic phosphate and choline. During the next step choline is oxidized with choline oxidase to yield betaine, whereby H2O2 is generated. H2O2 reacts with Amplex Red Reagent in the presence of peroxidase (Horseradish peroxidase) in an 1:1 stochiometry and yields highly fluorescent resorufin. The generated fluorescence is measured in a reaction-dependent kinetic mode in order to enable subtraction of fluorescence signals of possible other fluorescent compounds that are not part of the reaction from total measured fluorescence.
1.5 μl of a standard solution or of the compounds of the invention are dissolved in 20 mM Hepes pH 7.2 with maximally 7.7% DMSO in individual concentrations. The resulting solution is pre-incubated together with 10 μl (16 ng) of highly purified recombinant autotaxin in a black 384-hole microtiter plate for 30 min at 22° C. Thereafter, the reaction is started through the addition of 5 μL-a-lysophosphatidylcholine (LPC), whereby the final concentration of LPC is 75 μM. The mixture is incubated for 90 min. at 37° C. After the incubation Amplex Red Reagent, peroxidase (Horseradish peroxidase) and choline oxidase are added. The fluorescence is immediately measured at a wavelength of 612 nm with an excitation wavelength of 485 nm in a “Tecan Ultra multimode” fluorescence reader. The activity of autotaxin is indirectly calculated via the amount of detected generated H2O2.
For IC50 analysis, ten serial 1:3 dilutions starting at 30 μM for each compound were run in duplicates.
IC50 values were calculated on normalized data. For normalization, control wells were added to each assay plate and the signal of uninhibited control wells was set to 100%, whereas the signal inhibited by 500 μM C14 LPA, (Avanti Polar Lipids, Cat# 857120P) was set to 0%. Curves were fitted and IC50 values calculated by the following model using proprietary analysis software: Y=Bottom+(100−Bottom)/(1+10^((LogIC50−X)*HillSlope))
Where X is the logarithm of concentration. Y is the response; Y starts at Bottom and goes to Top with a sigmoid shape.
Protein: Recombinant autotaxin (baculoviral Hi5 expression)
Substrate: L-a-lysophosphatidyl choline (chicken egg); Avanti Polar Lipids #830071 P
Standard: C14 LPA, Avanti Polar Lipids, Cat# 857120P
Detection Reagent Amplex Red Reagent; Invitrogen #A12222; dissolved in 1.923 ml of DMSO peroxidase Type VI-A (horseradish), Sigma #P6782; dissolved in 7.45 ml of test buffer, Choline Oxidase; Sigma #C5896; dissolved in 2.47 ml test buffer
Detection Reagent Mix: 1:100 dilution of Amplex Red Regent in test buffer
Test buffer: 200 mM Tris-HCl, Merck, Cat # 1.08219, pH 7.9; 0.1% BSA, lipid free, Roche Cat#775835

| Structure (SMILES) | IC50 [µM] |
| --- | --- |
| COc1ccccc1CNc1ncc2c(N3CCC(C(=O)N4CCN(c5ccccn5)CC4)CC3)nccc2n1 [Compound 76, {1-[2-(2-Methoxy-benzylamino)-pyrido[4,3-d]pyrimidin-5-yl]-piperidin-4-yl}-(4-pyridin-2-yl-piperazin-1-yl)-methanone] | < 30 |
| COc1ccc(CNc2ncc3c(Nc4ccc(OC)c(OC)c4)nccc3n2)cc1 [Compound 54, N5-(3,4-Dimethoxy-phenyl)-N2-(4-methoxy-benzyl)-pyrido[4,3-d]pyrimidine-2,5-diamine] | < 30 |
| COCCCNC(=O)C1CCCN(c2nccc3nc(NCc4ccccc4Cl)ncc23)C1 (stereo not drawn) [Compound 90, 1-[2-(2-Chloro-benzylamino)-pyrido[4,3-d]pyrimidin-5-yl]-piperidine-3-carboxylic acid (3-methoxy-propyl)-amide] | < 30 |
| CN1CCN(C(=O)C2CCCN(c3nccc4nc(NCc5ccccc5Cl)ncc34)C2)CC1 (stereo not drawn) [Compound 104, {1-[2-(2-Chloro-benzylamino)-pyrido[4,3-d]pyrimidin-5-yl]-piperidin-3-yl}-(4-methyl-piperazin-1-yl)-methanone] | < 30 |
| Cc1ccc(CNc2ncc3c(N4CCCC(C(=O)Nc5cccnc5)C4)nccc3n2)cc1 (stereo not drawn) [Compound 93, 1-[2-(4-Methyl-benzylamino)-pyrido[4,3-d]pyrimidin-5-yl]-piperidine-3-carboxylic acid pyridin-3-ylamide] | < 30 |
| Cc1cc(F)ccc1Nc1nccc2nc(NCc3ccc(F)cc3)ncc12 [Compound 28, N2-(4-Fluoro-benzyl)-N5-(4-fluoro-2-methyl-phenyl)-pyrido[4,3-d]pyrimidine-2,5-diamine] | < 30 |
| N#CCC(=O)N1CCN(c2nccc3nc(NCc4ccccc4Cl)ncc23)CC1 [Compound 128, 3-{4-[2-(2-Chloro-benzylamino)-pyrido[4,3-d]pyrimidin-5-yl]-piperazin-1-yl}-3-oxo-propionitrile] | < 30 |
| CC(C)NC(=O)C1CCN(c2nccc3nc(NCc4ccccc4)ncc23)CC1 [Compound 61, 1-(2-Benzylamino-pyrido[4,3-d]pyrimidin-5-yl)-piperidine-4-carboxylic acid isopropylamide] | < 30 |
| O=C(NCc1ccco1)C1CCN(c2nccc3nc(NCc4ccc(Cl)cc4)ncc23)CC1 [Compound 79, 1-[2-(4-Chloro-benzylamino)-pyrido[4,3-d]pyrimidin-5-yl]-piperidine-4-carboxylic acid (furan-2-ylmethyl)-amide] | < 30 |
| O=C(NCc1ccco1)C1CCN(c2nccc3nc(NCc4ccccc4)ncc23)CC1 [Compound 60, 1-(2-Benzylamino-pyrido[4,3-d]pyrimidin-5-yl)-piperidine-4-carboxylic acid (furan-2-ylmethyl)-amide] | < 30 |
| O=C(NCc1ccc(F)cc1Cl)C1CCN(c2nccc3nc(NCc4ccccc4Cl)ncc23)CC1 [Compound 144, 1-[2-(2-Chloro-benzylamino)-pyrido[4,3-d]pyrimidin-5-yl]-piperidine-4-carboxylic acid 2-chloro-4-fluoro-benzylamide] | < 30 |
| N[C@H]1CCN(CC(=O)N2CCN(c3nccc4nc(NCc5ccccc5Cl)ncc34)CC2)C1=O [Compound 133, (S)-3-Amino-1-(2-{4-[2-(2-chloro-benzylamino)-pyrido[4,3-d]pyrimidin-5-yl]-piperazin-1-yl}-2-oxo-ethyl)-pyrrolidin-2-one] | < 30 |
| COc1ccccc1CNc1ncc2c(Nc3ccccc3C)nccc2n1 [Compound 34, N2-(2-Methoxy-benzyl)-N5-o-tolyl-pyrido[4,3-d]pyrimidine-2,5-diamine] | < 30 |

The remaining lines, values ahead:

| IC50 [µM] | Structure (SMILES) |
| --- | --- |
| < 30 | Cc1cc(F)ccc1Nc1nccc2nc(NCc3ccc(Cl)cc3)ncc12 [Compound 49, N2-(4-Chloro-benzyl)-N5-(4-fluoro-2-methyl-phenyl)-pyrido[4,3-d]pyrimidine-2,5-diamine] |
| < 30 | COc1ccc(Nc2nccc3nc(NCc4ccc(F)cc4)ncc23)cc1OC [Compound 27, N5-(3,4-Dimethoxy-phenyl)-N2-(4-fluoro-benzyl)-pyrido[4,3-d]pyrimidine-2,5-diamine] |
| < 5 | O=C(Nc1cccnc1)C1CCCN(c2nccc3nc(NCc4ccccc4Cl)ncc23)C1 (stereo not drawn) [Compound 82, 1-[2-(2-Chloro-benzylamino)-pyrido[4,3-d]pyrimidin-5-yl]-piperidine-3-carboxylic acid pyridin-3-ylamide] |
| < 10 | CCCN1CCN(C(=O)C2CCN(c3nccc4nc(NCc5ccccc5Cl)ncc34)CC2)CC1 [Compound 97, {1-[2-(2-Chloro-benzylamino)-pyrido[4,3-d]pyrimidin-5-yl]-piperidin-4-yl}-(4-propyl-piperazin-1-yl)-methanone] |
| < 30 | Clc1ccccc1CNc1ncc2c(NCc3ccccc3Cl)nccc2n1 [Compound 10, N2,N5-Bis-(2-chloro-benzyl)-pyrido[4,3-d]pyrimidine-2,5-diamine] |
| < 10 | O=C(NC1CC1)C1CCN(c2nccc3nc(NCc4ccccc4Cl)ncc23)CC1 [Compound 69, 1-[2-(2-Chloro-benzylamino)-pyrido[4,3-d]pyrimidin-5-yl]-piperidine-4-carboxylic acid cyclopropylamide] |
| < 30 | COc1ccc(CNc2ncc3c(Nc4ccc(F)cc4F)nccc3n2)cc1 [Compound 52, N5-(2,4-Difluoro-phenyl)-N2-(4-methoxy-benzyl)-pyrido[4,3-d]pyrimidine-2,5-diamine] |
| < 30 | COc1ccccc1CNc1ncc2c(Nc3ccc(C)cc3)nccc2n1 [Compound 36, N2-(2-Methoxy-benzyl)-N5-p-tolyl-pyrido[4,3-d]pyrimidine-2,5-diamine] |
| < 30 | Clc1ccccc1CNc1ncc2c(NCCc3cccnc3)nccc2n1 [Compound 147, N2-(2-Chloro-benzyl)-N5-(2-pyridin-3-yl-ethyl)-pyrido[4,3-d]pyrimidine-2,5-diamine] |
| < 30 | CN(C)C(=O)CCC(=O)N1CCN(c2nccc3nc(NCc4ccccc4Cl)ncc23)CC1 [Compound 125, 4-{4-[2-(2-Chloro-benzylamino)-pyrido[4,3-d]pyrimidin-5-yl]-piperazin-1-yl}-N,N-dimethyl-4-oxo-butyramide] |
| < 30 | COc1ccc(Nc2nccc3nc(NCc4ccc(Cl)cc4)ncc23)cc1OC [Compound 47, N2-(4-Chloro-benzyl)-N5-(3,4-dimethoxy-phenyl)-pyrido[4,3-d]pyrimidine-2,5-diamine] |
| < 30 | COc1ccccc1CNc1ncc2c(N3CCC(C(=O)Nc4cc(C)on4)CC3)nccc2n1 [Compound 77, 1-[2-(2-Methoxy-benzylamino)-pyrido[4,3-d]pyrimidin-5-yl]-piperidine-4-carboxylic acid (5-methyl-isoxazol-3-yl)-amide] |
| < 30 | CCCNC(=O)C1CCCN(c2nccc3nc(NCc4ccccc4Cl)ncc23)C1 (stereo not drawn) [Compound 85, 1-[2-(2-Chloro-benzylamino)-pyrido[4,3-d]pyrimidin-5-yl]-piperidine-3-carboxylic acid propylamide] |
| < 10 | CCCNC(=O)C1CCN(c2nccc3nc(NCc4ccccc4Cl)ncc23)CC1 [Compound 68, 1-[2-(2-Chloro-benzylamino)-pyrido[4,3-d]pyrimidin-5-yl]-piperidine-4-carboxylic acid propylamide] |
| < 30 | CC(C)OCCCNc1nccc2nc(NCc3ccccc3Cl)ncc12 [Compound 15, N2-(2-Chloro-benzyl)-N5-(3-isopropoxy-propyl)-pyrido[4,3-d]pyrimidine-2,5-diamine] |
| < 5 | NC(=O)C1CCN(c2nccc3nc(NCc4ccccc4Cl)ncc23)CC1 [Compound 107, 1-[2-(2-Chloro-benzylamino)-pyrido[4,3-d]pyrimidin-5-yl]-piperidine-4-carboxylic acid amide] |
| < 10 | O=C(CN1CCN(c2nccc3nc(NCc4ccccc4Cl)ncc23)CC1)Nc1cccnc1 [Compound 108, 2-{4-[2-(2-Chloro-benzylamino)-pyrido[4,3-d]pyrimidin-5-yl]-piperazin-1-yl}-N-pyridin-3-yl-acetamide] |
